The numbers were not newly measured in patent publication US20130344150A1, “DIRECT COMPRESSION TABLETS OF OTILONIUM” (Abdi Ibrahim IIac Sanayi Ve Ticaret Anonim Sirketi, priority 2009, published 2013), which cites them from elsewhere.

Data set [1] has as its system gastrointestinal-motility. Conditions: baseline and chemically or physically stimulated.
The conditions of data set [2]: clinical studies.

As for `CCCCCCCCOc1ccccc1C(=O)Nc1ccc(C(=O)OCC[N+](C)(CC)CC)cc1` [otilonium bromide], in data set [1], the effect on gastrointestinal-motility entry was “inhibits both baseline and chemically or physically stimulated gastrointestinal-motility”. Further, the tolerability entry in data set [2] was “good tolerability profile”.
